Values quoted from earlier work as cited in patent EP1928431B1, “CONTROLLED RELEASE PHARMACEUTICAL COMPOSITION CONTAINING CARVEDILOL” (Egis Gyógyszergyár Nyilvánosan Múködö Részvénytársaság, priority 2005, dated 2007).
In brackets after ≈: the same amount, converted by molar mass. Where two headings read alike, the source gives them in different places.

Legend:
[1] = in water
[2] = orally administered and absorbed taken as 100%
[3] = WO01/35958

solubility ([1]; pH 1): 1000 µg/mL (≈ 2460 µM)
solubility ([1]; pH 8): 10 µg/mL (≈ 24.6 µM)
absorption ([2]; administered in ileum): 28%
absorption ([2]; administered in the colon): 7%
absorption ([2]; administered in the jejunum): 56%
solubility in water [3]: 10 µg/mL (≈ 24.6 µM)
Compound: COc1ccccc1OCCNCC(O)COc1cccc2[nH]c3ccccc3c12 (stereo not drawn) [carvedilol, 1-[9'H-carbazol-4'-yloxy]-3-[{2"-(2""-<methoxy>-phenoxy)-ethyl}-amino]-propan-2-ol]
